In paper PMC10368966, “Safety and efficacy of AK0529 in respiratory syncytial virus‐infected infant patients: A phase 2 proof‐of‐concept trial” (Influenza and Other Respiratory Viruses, 2023):
Where “and” joins values, the source holds several entries; their conditions need not be identical. Equal entries are not always repeated. Entries after “also recorded” stand apart in the source; their conditions may differ.

How the values were obtained:
[1] = parameters: method as in Supporting Information; settings: multiple doses up to 300 mg bid ref Supporting Information; cited from earlier work
[2] = test system: clinical RSV isolates (31 A-subtypes and 29 B-subtypes); assay: Cytopathic and plaque reduction assays against clinical RSV isolates; format: cell-based
Description: AK0529 (ziresovir) is a potent, selective, and orally bioavailable RSV F protein inhibitor.[9]
(§1) The EC90 value was determined in the presence of the known plasma protein binding in the CPE assay. […] To achieve a target efficacious concentration in humans, it was expected that a minimum target of 5 × EC90 value, or approximately 40 ng/mL should be attained. To maintain the effectiveness, this target Ctrough level was required to be achieved across the dosing interval.

[3] = test system: laboratory strains of RSV-A and RSV-B; assay: Cytopathic effect (CPE) assay using Hep-2 cells; format: cell-based, human RSV; settings: human respiratory syncytial virus
Description: as §1

[4] = Phase 2 study: AST and ALT shift evaluation; format: in vivo, human (infants)
Description: Safety and tolerability was evaluated by clinical assessment of safety data, including laboratory data, electrocardiographic data, vital signs, and adverse events (AEs).
In study Part 1, no formal sample size calculation was performed. For Part 2, it was calculated that a sample size of 16 patients in each active treatment group would provide >90% power to detect a 50% reduction (mean ratio of 0.5) in RSV viral load AUC with AK0529 as compared with placebo, using a one‐sided significance level of 0.05, two‐sample equal variance t‐test, and assuming a 0.3 variation coefficient of the placebo for viral load. These assumptions were based on viral challenge models of early treatment in adults.[3] For the transaminase shift analysis, the Chi‐square test and Fisher's exact test were used, as appropriate, to test for differences between active treatment and placebo.

[5] = test system: clinical RSV isolates (31 A-subtypes and 29 B-subtypes); parameters: method as in PMID 31194544; settings: all clinical RSV isolates (31 A-subtypes and 29 B-subtypes) ref 9; cited from earlier work
[6] = test system: recombinant RSV T400I variant; assay: Resistance test with recombinant RSV T400I variant
[7] = AK0529 n = 38, worst shift category
[8] = AK0529 n = 39, worst shift category

## Cc1ccc2nc(N3CCS(=O)(=O)c4ccccc4C3)nc(NCC3(N)COC3)c2c1 [AK0529, ziresovir]
[1]
  tolerability: good tolerability
[2]
  potency against various RSV clinical isolates compared with laboratory strains: remained the same
[3]; HEp-2, target Ctrough in humans, read-out: 5 × EC90 value (minimum target efficacious concentration)
  minimum target trough concentration (5 × EC90): 0.04 mg/L
[3]; Hep-2 cells, CPE assay, read-out: EC90 of the RSV-induced reduction of cell viability (average)
  EC90: 5 nM and 0.0022 µg/mL
[4]; AK0529 n = 38
  ALT shift: Abnormal CS to abnormal NCS: 0 n (%)
  ALT shift: Abnormal CS to normal: 0 n (%)
  ALT shift: Abnormal NCS to normal: 1 (2.6%) n (%)
  ALT shift: No change: 34 (89.5%) n (%)
[4]; [7]
  ALT shift: Abnormal NCS to abnormal CS: 1 (2.6%) n (%)
  ALT shift: Normal to abnormal CS: 1 (2.6%) n (%)
  ALT shift: Normal to abnormal NCS: 1 (2.6%) n (%)
[4]; AK0529 n = 39
  AST shift: Abnormal CS to abnormal NCS: 1 (2.6%) n (%)
  AST shift: Abnormal CS to normal: 1 (2.6%) n (%)
  AST shift: Abnormal NCS to normal: 2 (5.1%) n (%)
  AST shift: No change: 29 (74.4%) n (%)
[4]; [8]
  AST shift: Abnormal NCS to abnormal CS: 0 n (%)
  AST shift: Normal to abnormal CS: 2 (5.1%) n (%)
  AST shift: Normal to abnormal NCS: 4 (10.3%) n (%)
[4]; vs placebo, Fisher's exact p = 0.516 (ALT), p = 0.644 (AST)
  association between exposure to active drug and deterioration / shifts in transaminase levels (ALT, AST): No statistically significant differences; also recorded: no association was found
[5]
  antiviral activity EC90: nanomolar concentrations
[6]
  susceptibility of recombinant RSV T400I variant: resistance
